# In publication PMC13266999, “Designing Antibiotics with Inherent Resistance to Efflux as a Strategy to Revive Discovery against Multidrug-Resistant Pathogens” (Journal of Medicinal Chemistry, 2026):
# Read-outs that look alike come from different tables or passages of the source.
# Assays:
# E. coli [1] = experiment: Mutation frequency and agar MIC; type: cell-based
# Description: (§1) Mutation frequencies were performed on solid media at supra-inhibitory concentrations. First, the agar MIC was performed to account for any issues in solubility of compounds in solid media. Agar plates were prepared with 2-fold dilutions of compound.
# (§2) For the mutation frequency assay, bacteria from an overnight culture were grown to mid exponential phase in liquid broth, then 100 μL was spread onto an agar plate containing compound at concentrations above the agar MIC. A Miles-Misra was also conducted on an antibiotic-free agar plate to determine the CFU/mL of the starting population. […] The mutation frequency was calculated by dividing the number of colonies on supra inhibitory con-centration plates by the starting population.
# S. aureus [2] = experiment: Mutation frequency and agar MIC; type: cell-based
# Description: as §1, §2
# A. baumannii = experiment: Mutation frequency and agar MIC; type: cell-based; conditions: A118
# Description: as §1, §2
# S. aureus [3] = experiment: MIC (microbroth dilution); type: cell-based, Staphylococcus aureus
# In short: (§3)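 Overnight stationary-phase cultures back-diluted and tested by broth microdilution with 2-fold compound series. MIC is lowest concentration with no visible growth, with OD600 also read. Separate runs included polymyxin B nonapeptide at 30 μg/mL final as outer-membrane permeabilizer.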
# Pharmacokinetics = conditions: male, ICR (CD-1), mouse; for half-life: in vivo; for AUC(0-inf): iv, 5 mg/kg
# Description: Pharmacokinetic studies were performed in male ICR (CD-1) mice obtained from Charles River, UK. […] Blood samples were collected from the caudal vein into anticoagulant-treated capillaries at predetermined time points up to 8 h, with terminal cardiac puncture at 8 h. Plasma samples were stored at −80 °C until analysis. […] A compound-specific LC-MS/MS method was developed for each test article using matrix-matched calibrators following protein precipitation of samples.
# S. aureus [4] = experiment: Serial passaging, MIC of adapted strains; type: cell-based; conditions: Staphylococcus aureus
# Description: MICs were performed on the first and 10th passage.
# WT DNA gyrase = biological target: T1, WT DNA gyrase (Staphylococcus aureus, UniProt P0A0K8+P20831); experiment: DNA gyrase supercoiling inhibition assay; type: biochemical, S. aureus
# T1 construct: purchased Inspiralis Ltd. (Norwich, UK)
# Description: (§4) Gyrase inhibition was determined through biochemical assay kits from Inspiralis Ltd. (Norwich, UK), according to manufacturer’s instructions, and as described previously. Briefly, 1U of enzyme was incubated with 0.5 μg of relaxed […] DNA in the presence of compound in 1% DMSO for 30 min at 37 °C. A control reaction contained no compound but still contained 1% DMSO. The reactions were stopped through Stop Buffer addition and the DNA separated through addition of chloroform/iso-amyl alcohol (24;1). Samples were run on a 1% agarose gel at 75 V for 2 h, which was then stained with 1 μg/mL ethidium bromide and visualized using a NuGenius gel imager (Syngene). The intensity of the supercoiled DNA band was quantified using Syngene software, and the inhibition of the supercoiling of the DNA by the compounds was calculated.
# [5] = biological target: T2, GyrA S84L mutant DNA gyrase (Staphylococcus aureus, UniProt P0A0K8+P20831, S84L); experiment: DNA gyrase supercoiling inhibition assay; type: biochemical, S. aureus
# T2 construct: purchased Inspiralis Ltd. (Norwich, UK)
# Description: as §4
# E. coli [6] = experiment: MIC (microbroth dilution); type: cell-based; conditions: Escherichia coli
# In short: as §3
# [7] = Staphylococcus aureus, 1199, + 4% albumin, read-out: MIC
# [8] = Staphylococcus aureus, 1199b, + 4% albumin, read-out: MIC
# [9] = Staphylococcus aureus, ATCC9144, ATCC 9144, + 4% albumin, read-out: MIC
# [10] = Staphylococcus aureus, ATCC9144, ATCC 9144, read-out: MIC
# [11] = Staphylococcus aureus, NCTC13277, NCTC 13277, + 4% albumin, read-out: MIC
# [12] = Staphylococcus aureus, NCTC13277, NCTC 13277, read-out: MIC
# [13] = Staphylococcus aureus, NCTC13616, NCTC 13616, + 4% albumin, read-out: MIC
# [14] = Staphylococcus aureus, NCTC13616, NCTC 13616, read-out: MIC
# [15] = Staphylococcus aureus, SA-1199B (NorA-overexpressing)
# [16] = 1199B adapted to 4 x MIC of Compound 7
# [17] = 1199B adapted to 4 x MIC of Compound 46
# [18] = 1199B adapted to 4 x MIC of Compound 50
# [19] = 1199B adapted to 4 x MIC of Compound 51
# [20] = 1199 adapted to 4 x MIC of Compound 7
# [21] = 1199 adapted to 4 x MIC of Compound 46
# [22] = 1199 adapted to 4 x MIC of Compound 50
# [23] = 1199 adapted to 4 x MIC of Compound 51
# [24] = NCTC13616, NCTC 13616 adapted to 4 x MIC of Compound 7
# [25] = NCTC13616, NCTC 13616 adapted to 4 x MIC of Compound 46
# [26] = NCTC13616, NCTC 13616 adapted to 4 x MIC of Compound 50
# [27] = NCTC13616, NCTC 13616 adapted to 4 x MIC of Compound 51
smiles,measurement,setting,value
"C[C@H]1COc2c(N3CCN(C)CC3)c(F)cc3c(=O)c(C(=O)O)cn1c23 [Levofloxacin, (S)-9-Fluoro-3-methyl-10-(4-methylpiperazin-1-yl)-7-oxo-2,3-dihydro-7H-[1,4]oxazino[2,3,4-ij]quinoline-6-carboxylic acid, reference compound]",Agar MIC,E. coli [1]; NCTC 12241,0.03 µg/mL
same,Agar MIC,E. coli [1]; NCTC 12923,0.0078 µg/mL
same,Agar MIC,S. aureus [2]; ATCC 9144,0.12 µg/mL
same,Agar MIC,S. aureus [2]; NCTC 13616,4 µg/mL
same,Agar MIC,A. baumannii,0.06 µg/mL
same,MIC,S. aureus [3]; ATCC 9144,0.25 µg/mL
same,MIC,S. aureus [3]; SA-1199,0.25 µg/mL
same,MIC,S. aureus [3]; SA-1199B (NorA-overexpressing),2 µg/mL
same,MIC,S. aureus [3]; [7],0.25 µg/mL
same,MIC,S. aureus [3]; [8],2 µg/mL
same,MIC,S. aureus [3]; [9],0.25 µg/mL
same,MIC,S. aureus [3]; [10],0.125 µg/mL
same,MIC,S. aureus [3]; [11],16 µg/mL
same,MIC,S. aureus [3]; [12],16 µg/mL
same,MIC,S. aureus [3]; [13],16 µg/mL
same,MIC,S. aureus [3]; [14],16 µg/mL
same,MIC,"S. aureus [3]; Staphylococcus aureus, SA-1199, read-out: MIC",0.125 µg/mL
same,MIC,S. aureus [3]; [15],1 µg/mL
same,half-life,"Pharmacokinetics; po, 20 mg/kg",342 min
same,AUC(0-inf),Pharmacokinetics; plasma,9170 ng·h/mL
same,MIC,S. aureus [4]; 1199B WT,1 µg/mL
same,MIC,S. aureus [4]; [16],4 µg/mL
same,MIC,S. aureus [4]; [17],2 µg/mL
same,MIC,S. aureus [4]; [18],4 µg/mL
same,MIC,S. aureus [4]; [19],2 µg/mL
same,MIC,S. aureus [4]; 1199 WT,0.125 µg/mL
same,MIC,S. aureus [4]; [20],1 µg/mL
same,MIC,S. aureus [4]; [21],0.25 µg/mL
same,MIC,S. aureus [4]; [22],1 µg/mL
same,MIC,S. aureus [4]; [23],0.25 µg/mL
same,MIC,"S. aureus [4]; NCTC13616, NCTC 13616 WT",8 µg/mL
same,MIC,S. aureus [4]; [24],> 32 µg/mL
same,MIC,S. aureus [4]; [25],16 µg/mL
same,MIC,S. aureus [4]; [26],16 µg/mL
same,MIC,S. aureus [4]; [27],32 µg/mL
same,IC50,"WT DNA gyrase; WT enzyme, read-out: IC50 (converted)",24.1 µM
same,IC50,"[5]; S84L mutant enzyme, read-out: IC50 (converted)",545 µM
same,MIC,E. coli [6]; 319238/UR,8 µg/mL
same,MIC,E. coli [6]; LEC006,≤ 0.06 µg/mL
same,MIC,E. coli [6]; LEC007,≤ 0.06 µg/mL
same,MIC,E. coli [6]; LEC077,0.5 µg/mL
same,MIC,E. coli [6]; LEC081,0.5 µg/mL
same,MIC,"E. coli [6]; NCTC10418, NCTC 10418",≤ 0.06 µg/mL
same,MIC,"E. coli [6]; NCTC11954, NCTC 11954",≤ 0.06 µg/mL
same,MIC,"E. coli [6]; NCTC12241, NCTC 12241",≤ 0.06 µg/mL
same,MIC,"E. coli [6]; NCTC12923, NCTC 12923",≤ 0.016 µg/mL
"C[C@H]1COc2c(N3CC[C@@H](Nc4ncccn4)C3)c(F)cc3c(=O)c(C(=O)O)cn1c23 [Compound 46, (S)-9-Fluoro-3-methyl-7-oxo-10-((R)-3-(pyrimidin-2-ylamino)pyrrolidin-1-yl)-2,3-dihydro-7H-[1,4]oxazino[2,3,4-ij]quinoline-6-carboxylic acid]",Agar MIC,E. coli [1]; NCTC 12241,0.03 µg/mL
same,Agar MIC,E. coli [1]; NCTC 12923,0.12 µg/mL
same,Agar MIC,S. aureus [2]; ATCC 9144,0.008 µg/mL
same,Agar MIC,S. aureus [2]; NCTC 13616,0.5 µg/mL
same,Agar MIC,A. baumannii,0.03 µg/mL
same,MIC,S. aureus [3]; NCTC 13616,0.5 to 1 µg/mL
same,"fold difference in MIC, SA-1199B vs SA-1199",S. aureus [3]; NorA-overexpressing vs WT,2 fold
same,MIC,S. aureus [3]; SA-1199B (NorA-overexpressing),0.03 µg/mL
same,MIC,S. aureus [3]; [7],0.03 to 0.06 µg/mL
same,MIC,S. aureus [3]; [8],0.06 µg/mL
same,MIC,S. aureus [3]; [9],0.03 to 0.06 µg/mL
same,MIC,S. aureus [3]; [10],≤ 0.03 µg/mL
same,MIC,S. aureus [3]; [11],1 to 2 µg/mL
same,MIC,S. aureus [3]; [12],1 µg/mL
same,MIC,S. aureus [3]; [13],1 to 2 µg/mL
same,MIC,S. aureus [3]; [14],0.5 µg/mL
same,MIC,S. aureus [3]; [15],0.016 µg/mL
same,fold potentiation compared to levofloxacin,S. aureus [3]; fluoroquinolone-resistant NCTC 13616 and NCTC 13277,16–32 fold
same,half-life,"Pharmacokinetics; po, 20 mg/kg",306 min
same,AUC(0-inf),Pharmacokinetics; plasma,15700 ng·h/mL
same,bioavailability,"Pharmacokinetics; plasma, po, 20 mg/kg",49.3%
same,MIC,S. aureus [4]; 1199B WT,0.015 µg/mL
same,MIC,S. aureus [4]; [16],0.03 µg/mL
same,MIC,S. aureus [4]; [17],0.125 µg/mL
same,MIC,S. aureus [4]; [18],0.25 µg/mL
same,MIC,S. aureus [4]; [19],0.06 µg/mL
same,MIC,S. aureus [4]; 1199 WT,0.008 µg/mL
same,MIC,S. aureus [4]; [20],0.015 µg/mL
same,MIC,S. aureus [4]; [21],0.03 µg/mL
same,MIC,S. aureus [4]; [22],0.125 µg/mL
same,MIC,S. aureus [4]; [23],0.03 µg/mL
same,MIC,"S. aureus [4]; NCTC13616, NCTC 13616 WT",0.5 µg/mL
same,MIC,S. aureus [4]; [24],0.5 µg/mL
same,MIC,S. aureus [4]; [25],0.5 µg/mL
same,MIC,S. aureus [4]; [26],0.5 µg/mL
same,MIC,S. aureus [4]; [27],2 µg/mL
same,IC50,WT DNA gyrase,7.92 µM
same,IC50,[5],95.3 µM
same,MIC,E. coli [6]; 319238/UR,16 µg/mL
same,MIC,E. coli [6]; LEC006,0.125 µg/mL
same,MIC,E. coli [6]; LEC007,0.125 µg/mL
same,MIC,E. coli [6]; LEC077,4 µg/mL
same,MIC,E. coli [6]; LEC081,2 µg/mL
same,MIC,"E. coli [6]; NCTC10418, NCTC 10418",≤ 0.06 µg/mL
same,MIC,"E. coli [6]; NCTC11954, NCTC 11954",0.125 µg/mL
same,MIC,"E. coli [6]; NCTC12241, NCTC 12241",0.06 µg/mL
same,MIC,"E. coli [6]; NCTC12923, NCTC 12923",0.25 to 0.5 µg/mL
